The source of these data is ChEMBL document CHEMBL4020808, “Inhibitors of DNA Gyrase-GyrB Subunit and/or Topoisomerase IV-ParE Subunit May Treat Infectious Diseases Caused by Antibiotic-Resistant Bacteria” (2017).

Each structure is given as a SMILES string. Values after ≈ are worked out from the molar mass of the structure shown.

What all share (type): functional
In one assay the test system is Staphylococcus aureus. Kind of assay: Antimicrobial activity against Staphylococcus aureus ATCC 29213 after 20 hrs by broth microdilution method. The following applies: ATCC 29213, 20 h. On the technique in general: In broth dilution the organism is exposed to a series of concentrations in liquid medium.
The next assay concerns Clostridioides difficile. Kind of assay: Antimicrobial activity against Clostridioides difficile ATCC 43255 under anaerobic condition for 42 to 48 hrs by agar dilution method. On the technique in general: In agar dilution the substance is mixed into plates at graded concentrations.
The test system of a further assay is Haemophilus influenzae. Nature of the assay: Antimicrobial activity against Haemophilus influenzae ATCC 49247 after 20 hrs by broth microdilution method. The following applies: ATCC 49247, 20 h.
The next assay has as its system Enterococcus faecalis. Kind of assay: Antimicrobial activity against Enterococcus faecalis ATCC 29212 after 20 hrs by broth microdilution method. The following applies: ATCC 29212, 20 h.
The subject of another assay is Streptococcus pneumoniae. Nature of the assay: Antimicrobial activity against Streptococcus pneumoniae ATCC 49619 after 20 hrs by broth microdilution method. The conditions noted are these: ATCC 49619, 20 h.

For the molecule `CCc1[nH]c(C(=O)N[C@@H]2CCN(c3nnc([C@@](C)(O)CO)s3)C[C@@H]2OC)nc1Cl`, the MIC was found to be 1 µg/mL (≈ 2.25 µM) in the assay on Staphylococcus aureus and 0.06 µg/mL (≈ 0.135 µM) against Clostridioides difficile.
In the same order, the values of `CCc1[nH]c(C(=O)N[C@@H]2CCN(c3nnc([C@@H](O)CO)s3)C[C@@H]2OC)nc1Cl` are 4 µg/mL (≈ 9.28 µM) and 0.125 µg/mL (≈ 0.29 µM).
In the case of `CCc1[nH]c(C(=O)N[C@@H]2CCN(c3nnc([C@H](C)O)s3)C[C@@H]2OC)nc1Cl`, the MIC against Staphylococcus aureus worked out at 0.5 µg/mL (≈ 1.21 µM); in the assay with Haemophilus influenzae it was 1 µg/mL (≈ 2.41 µM); against Clostridioides difficile it was 0.125 µg/mL (≈ 0.301 µM); against Enterococcus faecalis, 0.25 µg/mL (≈ 0.603 µM); in the assay on Streptococcus pneumoniae it was 0.25 µg/mL (≈ 0.603 µM).
For the molecule `CCc1[nH]c(C(=O)N[C@@H]2CCN(c3nnc([C@@H](C)O)s3)C[C@@H]2OC)nc1Cl`, the MIC with Staphylococcus aureus is 0.5 µg/mL (≈ 1.21 µM); in the assay on Haemophilus influenzae, 1 µg/mL (≈ 2.41 µM); in the assay with Clostridioides difficile it was 0.06 µg/mL (≈ 0.145 µM); against Enterococcus faecalis it was 0.25 µg/mL (≈ 0.603 µM); with Streptococcus pneumoniae, 0.25 µg/mL (≈ 0.603 µM).
For `CCc1[nH]c(C(=O)N[C@@H]2CCN(c3nnc(C(C)(C)O)s3)C[C@@H]2OC)nc1Cl`, the MIC was 0.25 µg/mL (≈ 0.583 µM) against Staphylococcus aureus; 0.5 µg/mL (≈ 1.17 µM) in the assay with Haemophilus influenzae; 0.06 µg/mL (≈ 0.14 µM) against Clostridioides difficile; 0.25 µg/mL (≈ 0.583 µM) in the assay on Enterococcus faecalis; 0.25 µg/mL (≈ 0.583 µM) against Streptococcus pneumoniae.
`CCO[C@H]1CN(c2nnc(C(C)O)s2)CC[C@H]1NC(=O)c1nc(Cl)c(CC)[nH]1` (some centres undefined): the MIC turned out to be 0.5 µg/mL (≈ 1.17 µM) with Staphylococcus aureus; 2 µg/mL (≈ 4.66 µM) against Haemophilus influenzae; 0.03 µg/mL (≈ 0.0699 µM) in the assay with Clostridioides difficile; 0.25 µg/mL (≈ 0.583 µM) in the assay on Enterococcus faecalis; 0.25 µg/mL (≈ 0.583 µM) against Streptococcus pneumoniae.
